Reference: US9220767B2 (priority 2008, dated 2015)

Tests used:
IgG1, IgG2a and IgG2b = experiment: Detection of IgG1, IgG2a and IgG2b in mouse sera by ELISA after intramuscular Agrippal and adjuvants; format: in vivo, mice; settings: for level of IgG1 in sera / level of IgG2a in sera / level of IgG2b in sera: 1, 4 or 8.9 μg Agrippal alone or + 1 μg adjuvant, ELISA; for level of IgG1 when the dose of Agrippal combined to the adjuvant was increased / level of IgG2a when the dose of Agrippal combined to the adjuvant was increased / level of IgG2b when the dose of Agrippal combined to the adjuvant was increased: Agrippal 1 to 8.9 μg + 1 μg adjuvant
Procedure: Mice were injected at day 0 and day 21 with: • PBS, • 1 μg Agrippal® alone, • 1 μg Agrippal®+1 μg PBS-57 in pegylated form or liposome formulation (PBS-57/S or PBS-57/L) or PBS-14 liposome formulation (PBS-14/L), • 4 μg Agrippal® alone, • 4 μg Agrippal®+1 μg PBS-57/S or PBS-57/L or PBS-14/L, • 8.9 μg Agrippal® alone, or • 8.9 μg Agrippal®+1 μg PBS-57/S or PBS-57/L or PBS-14/L.
Sera were collected at day 42 and the IgG1, IgG2a and IgG2b content of the sera was analysed by ELISA.
Mice were injected at day 0 with: • PBS, • 1 μg Agrippal® alone, • 1 μg Agrippal®+1 μg PBS-57 in pegylated form or liposome formulation (PBS-57/S or PBS-57/L) • 4 μg Agrippal® alone, • 4 μg Agrippal®+1 μg PBS-57/S or PBS-57/L, • 8.9 μg Agrippal® alone, or • 8.9 μg Agrippal®+1 μg PBS-57/S or PBS-57/L.
Sera were collected at day 21 and the IgG1 and IgG2b content of the sera was analysed by ELISA.

[1] = test system: three prototypical strains (A/Brisbane/10/2007, A/Brisbane/59/2007, and B/Florida/4/2006); experiment: Indirect hemagglutination assay (IHA) of immunised mice sera, statements not split by strain; format: in vivo; settings: for IHA titers induced by Fluarix vaccination: mice immunised twice with Fluarix + adjuvant, vs Fluarix alone (Example 3)
Procedure: (§1) Mice were injected by intramuscular route at day 0 and day 21 with: • NaCl, • 1 μg Fluarix® alone, • 1 μg Fluarix®+1 μg PBS-57/S, or • 1 μg Fluarix®+1 μg PBS-57/L.
(§2) Sera were collected at day 42 and reactivity with the three prototypical strains (A/Brisbane/10/2007, A/Brisbane/59/2007, and B/Florida/4/2006) of Fluarix® vaccine was assayed by measuring IHA titers for each of these strains (see FIG. 7).
(§3) Mice were injected by intramuscular route at day 0 and day 21 with: • nothing (naïve mice), • PBS, • 4 μg Agrippal® alone, • 8.9 μg Agrippal® alone, • 4 μg Agrippal®+1 μg PBS-57 in liposome formulation (PBS-57/L) or PBS-14 liposome formulation (PBS-14/L), or • 8.9 μg Agrippal®+1 μg PBS-57 in PEGylated form (PBS-57/S) or PBS-57/L or PBS-14/L.
(§4) Sera were collected at day 42 and reactivity with the three prototypical strains (H3 A/Brisbane/10/2007, H1 A/Brisbane/59/2007, and B/Florida/4/2006) of Agrippal® vaccine was assayed by measuring IHA titers for each of these strains (see FIG. 8).
Mice were injected by intramuscular route at day 0 with: • NaCl, • PBS-57/D alone, • PBS-57/L alone, • PBS-57/S alone, • 4 μg Agrippal® alone, • 8.9 μg Agrippal® alone, • 4 μg Agrippal®+1 μg PBS-57 in liposome formulation (PBS-57/L) or in pegylated form (PBS-57/S) or in DMSO (PBS-57/D), or • 8.9 μg Agrippal®+1 μg PBS-57/L or PBS-57/S or PBS-57/D.
Sera were collected at day 21 and reactivity with the three prototypical strains (H3 A/Brisbane/10/2007, H1 A/Brisbane/59/2007, and B/Florida/4/2006) of Agrippal® vaccine was assayed by measuring IHA titers for each of these strains (see FIG. 9).
Mice were injected by intramuscular route at day 0 with: • PBS, • 1 μg PBS-57 in DMSO (PBS-57/D) alone • 1 μg PBS-57 in PEGylated form (PBS-57/S) alone, • 1 μg PBS-57 in liposome formulation (PBS-57/L) alone, • 4 μg Agrippal® alone, • 8.9 μg Agrippal® alone, • 4 μg Agrippal®+1 μg PBS-57/D, PBS-57/S or PBS-57/L, or • 8.9 μg Agrippal®+1 μg PBS-57/D, PBS-57/S or PBS-57/L.
(§5) Agrippal® vaccine comprises a mixture of A/Brisbane/10/2007-like, A/Brisbane/59/2007-like, and B/Florida/4/2006-like strains.
Sera were collected at day 21 and reactivity with the three prototypical strains (H3 A/Brisbane/10/2007, H1 A/Brisbane/59/2007, and B/Florida/4/2006) of Agrippal® vaccine was assayed by measuring IHA titers for each of these strains (see FIG. 20).

H1 A/Brisbane/59/2007 = experiment: Indirect hemagglutination assay (IHA) of immunised mice sera, strain A/Brisbane/59/2007; format: in vivo; settings: 1 μg Fluarix + 1 μg adjuvant i.m. day 0 and 21; sera day 42; vs Fluarix alone
Procedure: as §1
(§6) Fluarix® vaccine comprises a mixture of A/Brisbane/10/2007-like, A/Brisbane/59/2007-like, and B/Florida/4/2006-like strains.
as §2, §3, §5, §4

[2] = test system: iNKT (Vβ11/Vα24+ cells) from cord blood mononuclear cells (CBMC); experiment: In vitro iNKT activation, cord blood mononuclear cells; format: cell-based; settings: 7 days culture with IL-2, 10 or 100 ng/ml, compared to 100 ng α-GalCer
Procedure: (§7) Adults PBMC and cord blood mononuclear cells (CBMC) were either non stimulated, or cultured in vitro with IL-2 alone or IL-2 combined with 100 ng α-GalCer or PBS-57/D or PBS-57/L (at 10 ng/ml or 100 ng/ml).
(§8) After 7 days of culture, activation of iNKT was determined by assessing the percentage of Vβ11/Vα24^+ cells amplified from PBMC or CBMC (FIGS. 13 and 14).

[3] = test system: iNKT (Vβ11/Vα24+ cells) from adults PBMC; experiment: In vitro iNKT activation, adult PBMC; format: cell-based; settings: 7 days culture with IL-2, 10 or 100 ng/ml, compared to 100 ng α-GalCer
Procedure: as §7, §8

B/Florida/4/2006 = experiment: Indirect hemagglutination assay (IHA) of immunised mice sera, strain B/Florida/4/2006; format: in vivo; settings: 1 μg Fluarix + 1 μg adjuvant i.m. day 0 and 21; sera day 42; vs Fluarix alone
Procedure: as §1, §6, §2, §3, §5, §4

H3 A/Brisbane/10/2007 = experiment: Indirect hemagglutination assay (IHA) of immunised mice sera, strain A/Brisbane/10/2007; format: in vivo; settings: 1 μg Fluarix + 1 μg adjuvant i.m. day 0 and 21; sera day 42; vs Fluarix alone
Procedure: as §1, §6, §2, §3, §5
Sera were collected at day 42 and reactivity with the three prototypical strains (H3 A/Brisbane/10/2007, H1 A/Brisbane/59/2007, and B/Florida/4/2006) of Agrippal® vaccine was assayed by measuring IHA titers for each of these strains (see FIG. 8). […]

[4] = mice injected day 0 and day 21, sera day 42
[5] = two injections (day 0, 21), sera day 42
[6] = mice immunised twice (day 0, 21) with Agrippal + 1 μg adjuvant, sera day 42 (Example 4)
[7] = single injection day 0 of Agrippal + 1 μg adjuvant, sera day 21 (Example 5)
[8] = single injection day 0, sera day 21

SMILES | level of IgG1 in sera (IgG1, IgG2a and IgG2b; [4]) | level of IgG2a in sera (IgG1, IgG2a and IgG2b; [4]) | level of IgG2b in sera (IgG1, IgG2a and IgG2b; [4]) | level of IgG1 when the dose of Agrippal combined to the adjuvant was increased (IgG1, IgG2a and IgG2b; [5]) | level of IgG2a when the dose of Agrippal combined to the adjuvant was increased (IgG1, IgG2a and IgG2b; [5]) | level of IgG2b when the dose of Agrippal combined to the adjuvant was increased (IgG1, IgG2a and IgG2b; [5]) | IHA titers as compared with the Agrippal vaccine alone [1, 6] | IHA titers induced by Fluarix vaccination [1] | IHA titers as compared with the Agrippal vaccine alone [1, 7] | level of IgG1 in sera (IgG1, IgG2a and IgG2b; [8]) | level of IgG2b in sera (IgG1, IgG2a and IgG2b; [8]) | level of IgG1 when the dose of Agrippal combined to the adjuvant was increased (IgG1, IgG2a and IgG2b; [8]) | level of IgG2b when the dose of Agrippal combined to the adjuvant was increased (IgG1, IgG2a and IgG2b; [8]) | IHA titers induced by Fluarix vaccination against A/Brisbane/59/2007 (H1 A/Brisbane/59/2007) | IHA titers as compared with the Agrippal vaccine alone ([1]; single injection day 0 of 4 or 8.9 μg Agrippal + 1 μg adjuvant, sera day 21 (Example 12)) | activation of iNKT (percentage of Vβ11/Vα24+ cells amplified) [2] | activation of iNKT (percentage of Vβ11/Vα24+ cells amplified) [3] | IHA titers induced by Fluarix vaccination against B/Florida/4/2006 (B/Florida/4/2006) | IHA titers induced by Fluarix vaccination against A/Brisbane/10/2007 (H3 A/Brisbane/10/2007)
CCCCCCCCCCCCCCCCCCCCCCCCCC(=O)N[C@@H](COC1OC(CNC(C)=O)C(O)C(O)C1O)[C@H](O)[C@H](O)CCCCCCCCCCCCCC (stereo partly shown) [PBS-14] | increases | increases | increases | not significantly further increased | not significantly further increased | not significantly further increased | increased IHA titers | same results | increased IHA titers | – | – | – | – | – | – | – | – | – | –
CCCCCCCC/C=C\CCCCCCCCCCCCCC(=O)N[C@@H](COC1OC(CNC(C)=O)C(O)C(O)C1O)[C@H](O)[C@H](O)CCCCCCCCCCCCCC (stereo partly shown) [PBS-57] | increases | increases | increases | not significantly further increased | not significantly further increased | not significantly further increased | increased IHA titers | – | increased IHA titers | increases | increases | not significantly further increased | not significantly further increased | enhanced but to a less significant level | increased IHA titers | stronger activation of iNKT compared to α-GalCer | stronger activation of iNKT compared to α-GalCer | significantly enhanced | significantly enhanced
CCCCCCCCCCCCCCCCCCCCCCCC(=O)N[C@@H](COC1OC(CNC(C)=O)C(O)C(O)C1O)[C@H](O)[C@H](O)CCCCCCCCCCCCCC (stereo partly shown) [PBS-96] | – | – | – | – | – | – | – | same results | – | – | – | – | – | – | – | – | – | – | –
